Laboratory results: ChEMBL document CHEMBL3508574 (2016)
Values belong to the molecule of their own block, whether it stands above or below them.

Experiments:
[1] = Cmax of total HMG-CoA reductase inhibitor (both lactone and open acid) following administration of simvastatin tablet at 40 mg dose level in hypercholesterolemic patients; format: ADME, organism-based, Plasma; settings: human, in vivo, po
[2] = Cmax of total HMG-CoA reductase inhibitor (both lactone and open acid) following administration of simvastatin tablet at 80 mg dose level in hypercholesterolemic patients; format: ADME, organism-based, Plasma; settings: human, in vivo, po
[3] = Cmax of total HMG-CoA reductase inhibitor (both lactone and open acid) following administration of simvastatin tablet at 160 mg dose level in hypercholesterolemic patients; format: ADME, organism-based, Plasma; settings: human, in vivo, po
[4] = AUC of total HMG-CoA reductase inhibitor (both lactone and open acid) following administration of simvastatin tablet at 40 mg dose level in hypercholesterolemic patients; format: ADME, organism-based, Plasma; settings: human, in vivo, po
[5] = AUC of total HMG-CoA reductase inhibitor (both lactone and open acid) following administration of simvastatin tablet at 80 mg dose level in hypercholesterolemic patients; format: ADME, organism-based, Plasma; settings: human, in vivo, po
[6] = AUC of total HMG-CoA reductase inhibitor (both lactone and open acid) following administration of simvastatin tablet at 160 mg dose level in hypercholesterolemic patients; format: ADME, organism-based, Plasma; settings: human, in vivo, po
[7] = Absorption of simvastatin following oral administration of simvastatin in rat; format: ADME, organism-based; settings: in vivo
[8] = Absorption of simvastatin following oral administration of simvastatin in dog; format: ADME, organism-based, Canis lupus familiaris; settings: in vivo
[9] = Absorption of simvastatin following oral administration of simvastatin in human; format: ADME, organism-based; settings: in vivo
Canis lupus familiaris [10] = assay: Plasma protein binding of simvastatin following oral dose of simvastatin at 2 mg.Kg-1 level in dog; format: organism-based; parameters: dose 2 mg.Kg-1, dosed compound id 2.4681e+06, dosed compound name, dose level, study doses mg.Kg-1
Homo sapiens [11] = assay: Plasma protein binding of simvastatin following oral dose of simvastatin at […] level in human; format: organism-based; parameters: dose 40 mg, dosed compound id 2.4681e+06, dosed compound name, dose level, study doses mg
[12] = Mean AUC (0-t) of simvastatin following administration of simvastatin 80 mg orally disintegrating tablet in healthy human; format: ADME, organism-based; settings: plasma, po
[13] = Mean AUC (0-t) of simvastatin following administration of reference product Zocor 80 mg tablet in healthy human; format: ADME, organism-based; settings: plasma, po
[14] = Mean AUC (0-infinity) of simvastatin following administration of simvastatin 80 mg orally disintegrating tablet in healthy human; format: ADME, organism-based; settings: plasma, po, read-out: AUC (0-infinity)
[15] = Mean AUC (0-infinity) of simvastatin following administration of reference product Zocor 80 mg tablet in healthy human; format: ADME, organism-based; settings: plasma, po, read-out: AUC (0-infinity)
[16] = Mean Cmax of simvastatin following administration of simvastatin 80 mg orally disintegrating tablet in healthy human; format: ADME, organism-based; settings: plasma, po
[17] = Mean Cmax of simvastatin following administration of reference product Zocor 80 mg tablet in healthy human; format: ADME, organism-based; settings: plasma, po
[18] = Mean elimination rate constant of simvastatin following administration of simvastatin 80 mg orally disintegrating tablet in healthy human; format: ADME, organism-based; settings: plasma, po
[19] = Mean elimination rate constant of simvastatin following administration of reference product Zocor 80 mg tablet in healthy human; format: ADME, organism-based; settings: plasma, po
[20] = Mean elimination half-life of simvastatin following administration of simvastatin 80 mg orally disintegrating tablet in healthy human; format: ADME, organism-based; settings: plasma, po
[21] = Mean elimination half-life of simvastatin following administration of reference product Zocor 80 mg tablet in healthy human; format: ADME, organism-based; settings: plasma, po
[22] = Cmax of active HMG-CoA reductase inhibitor L-654,969 following administration of simvastatin tablet at 40 mg dose level in hypercholesterolemic patients; format: ADME, organism-based, Plasma; settings: human, in vivo, po
[23] = Cmax of active HMG-CoA reductase inhibitor L-654,969 following administration of simvastatin tablet at 80 mg dose level in hypercholesterolemic patients; format: ADME, organism-based, Plasma; settings: human, in vivo, po
[24] = Cmax of active HMG-CoA reductase inhibitor L-654,969 following administration of simvastatin tablet at 160 mg dose level in hypercholesterolemic patients; format: ADME, organism-based, Plasma; settings: human, in vivo, po
[25] = Tmax of active HMG-CoA reductase inhibitor L-654,969 following administration of simvastatin tablet at 40 mg dose level in hypercholesterolemic patients; format: ADME, organism-based, Plasma; settings: human, in vivo, po
[26] = Tmax of active HMG-CoA reductase inhibitor L-654,969 following administration of simvastatin tablet at 80 mg dose level in hypercholesterolemic patients; format: ADME, organism-based, Plasma; settings: human, in vivo, po
[27] = Tmax of active HMG-CoA reductase inhibitor L-654,969 following administration of simvastatin tablet at 160 mg dose level in hypercholesterolemic patients; format: ADME, organism-based, Plasma; settings: human, in vivo, po
[28] = AUC of active HMG-CoA reductase inhibitor L-654,969 following administration of simvastatin tablet at 40 mg dose level in hypercholesterolemic patients; format: ADME, organism-based, Plasma; settings: human, in vivo, po
[29] = AUC of active HMG-CoA reductase inhibitor L-654,969 following administration of simvastatin tablet at 80 mg dose level in hypercholesterolemic patients; format: ADME, organism-based, Plasma; settings: human, in vivo, po
[30] = AUC of active HMG-CoA reductase inhibitor L-654,969 following administration of simvastatin tablet at 160 mg dose level in hypercholesterolemic patients; format: ADME, organism-based, Plasma; settings: human, in vivo, po
[31] = Bioavailability of active beta-hydroxy acid form of simvastatin following oral administration of simvastatin in rat; format: ADME, organism-based; settings: in vivo
[32] = Bioavailability of active beta-hydroxy acid form of simvastatin following oral administration of simvastatin in dog; format: ADME, organism-based, Canis lupus familiaris; settings: in vivo
[33] = Bioavailability of active beta-hydroxy acid form of simvastatin following oral administration of simvastatin in human; format: ADME, organism-based; settings: in vivo
[34] = Hepatic extraction of active beta-hydroxy acid form of simvastatin following oral administration of simvastatin in rat; format: ADME, organism-based, Liver; settings: in vivo
[35] = Hepatic extraction of active beta-hydroxy acid form of simvastatin following oral administration of simvastatin in dog; format: ADME, organism-based, Canis lupus familiaris, Liver; settings: in vivo
[36] = Hepatic extraction of active beta-hydroxy acid form of simvastatin following oral administration of simvastatin in human; format: ADME, organism-based, Liver; settings: in vivo
[37] = Extrahepatic tissue penetration of active beta-hydroxy acid form of simvastatin following oral administration of simvastatin in rat; format: ADME, organism-based; settings: in vivo
[38] = Extrahepatic tissue penetration of active beta-hydroxy acid form of simvastatin following oral administration of simvastatin in dog; format: ADME, organism-based, Canis lupus familiaris; settings: in vivo
[39] = Extrahepatic tissue penetration of active beta-hydroxy acid form of simvastatin following oral administration of simvastatin in human; format: ADME, organism-based; settings: in vivo
[40] = Extensive biliary excretion of active beta-hydroxy acid form of simvastatin following oral administration of simvastatin in rat; format: ADME, organism-based, Bile; settings: in vivo
[41] = Extensive biliary excretion of active beta-hydroxy acid form of simvastatin following oral administration of simvastatin in dog; format: ADME, organism-based, Canis lupus familiaris, Bile; settings: in vivo
[42] = Extensive biliary excretion of active beta-hydroxy acid form of simvastatin following oral administration of simvastatin in human; format: ADME, organism-based, Bile; settings: in vivo
Canis lupus familiaris [43] = assay: Plasma protein binding of simvastatin acid following oral dose of simvastatin at 2 mg.Kg-1 level in dog; format: organism-based; parameters: dose 2 mg.Kg-1, dosed compound id 2.4681e+06, dosed compound name, dose level, study doses mg.Kg-1
Homo sapiens [44] = assay: Plasma protein binding of simvastatin acid following oral dose of simvastatin at […] level in human; format: organism-based; parameters: dose 40 mg, dosed compound id 2.4681e+06, dosed compound name, dose level, study doses mg
[45] = Mean AUC (0-t) of simvastatin acid following administration of simvastatin 80 mg orally disintegrating tablet in healthy human; format: ADME, organism-based, Plasma; settings: in vivo, po
[46] = Mean AUC (0-t) of simvastatin acid following administration of reference product Zocor 80 mg tablet in healthy human; format: ADME, organism-based, Plasma; settings: in vivo, po
[47] = Mean AUC (0-infinity) of simvastatin acid following administration of simvastatin 80 mg orally disintegrating tablet in healthy human; format: ADME, organism-based, Plasma; settings: in vivo, po
[48] = Mean AUC (0-infinity) of simvastatin acid following administration of reference product Zocor 80 mg tablet in healthy human; format: ADME, organism-based, Plasma; settings: in vivo, po
[49] = Mean Cmax of simvastatin acid following administration of simvastatin 80 mg orally disintegrating tablet in healthy human; format: ADME, organism-based, Plasma; settings: in vivo, po
[50] = Mean Cmax of simvastatin acid following administration of reference product Zocor 80 mg tablet in healthy human; format: ADME, organism-based, Plasma; settings: in vivo, po
[51] = Mean Tmax of simvastatin acid following administration of simvastatin 80 mg orally disintegrating tablet in healthy human; format: ADME, organism-based, Plasma; settings: in vivo, po
[52] = Mean Tmax of simvastatin acid following administration of reference product Zocor 80 mg tablet in healthy human; format: ADME, organism-based, Plasma; settings: in vivo, po
[53] = Mean elimination rate constant of simvastatin acid following administration of simvastatin 80 mg orally disintegrating tablet in healthy human; format: ADME, organism-based, Plasma; settings: in vivo, po
[54] = Mean elimination rate constant of simvastatin acid following administration of reference product Zocor 80 mg tablet in healthy human; format: ADME, organism-based, Plasma; settings: in vivo, po
[55] = Mean elimination half-life of simvastatin acid following administration of simvastatin 80 mg orally disintegrating tablet in healthy human; format: ADME, organism-based, Plasma; settings: in vivo, po
[56] = Mean elimination half-life of simvastatin acid following administration of reference product Zocor 80 mg tablet in healthy human; format: ADME, organism-based, Plasma; settings: in vivo, po

Cmax [1]: 75 ng.eq.ml-1
Cmax [2]: 165 ng.eq.ml-1
Cmax [3]: 404 ng.eq.ml-1
AUC [4]: 316 ng.eq.h.ml-1
AUC [5]: 636 ng.eq.h.ml-1
AUC [6]: 1533 ng.eq.h.ml-1
Absorption [7]: Simvastatin is well absorbed in rats
Absorption [8]: Simvastatin is well absorbed in dogs
Absorption [9]: Simvastatin is well absorbed in humans
PPB (Canis lupus familiaris [10]): 97%
PPB (Homo sapiens [11]): 97%
AUC(0-t) [12]: 77.6 ng·h/mL
AUC(0-t) [13]: 83.9 ng·h/mL
AUC(0-inf) [14]: 98.5 ng·h/mL
AUC(0-inf) [15]: 102 ng·h/mL
Cmax [16]: 18.3 ng/mL
Cmax [17]: 19.4 ng/mL
k el [18]: 4.16e-05 s⁻¹
k el [19]: 3.02e-05 s⁻¹
half-life [20]: 9.39 h
half-life [21]: 10.1 h
Compound: CCC(C)(C)C(=O)O[C@H]1C[C@@H](C)C=C2C=C[C@H](C)[C@H](CC[C@@H]3C[C@@H](O)CC(=O)O3)[C@H]21 [SIMVASTATIN]

Cmax [22]: 21 ng.eq.ml-1
Cmax [23]: 50 ng.eq.ml-1
Cmax [24]: 138 ng.eq.ml-1
Tmax [25]: 1.8 h
Tmax [26]: 1.8 h
Tmax [27]: 1.8 h
AUC [28]: 120 ng.eq.h.ml-1
AUC [29]: 263 ng.eq.h.ml-1
AUC [30]: 668 ng.eq.h.ml-1
PPB (Canis lupus familiaris [43]): 93%
PPB (Homo sapiens [44]): 93%
AUC(0-t) [45]: 37.67 ng·h/mL
AUC(0-t) [46]: 36.61 ng·h/mL
AUC (0-infinity) [47]: 41.54 ng·h/mL
AUC (0-infinity) [48]: 47.76 ng·h/mL
Cmax [49]: 4.5 ng/mL
Cmax [50]: 3.88 ng/mL
Tmax [51]: 4.42 h
Tmax [52]: 4.35 h
Kel [53]: 0.1554 h⁻¹
Kel [54]: 0.1357 h⁻¹
t1/2 [55]: 5.95 h
t1/2 [56]: 8.67 h
Compound: CCC(C)(C)C(=O)O[C@H]1C[C@@H](C)C=C2C=C[C@H](C)[C@H](CC[C@@H](O)C[C@@H](O)CC(=O)O)[C@H]21 [TENIVASTATIN]
F [31]: The active beta-hydroxyacid form of simvastatin is poorly bioavailable in rats
F [32]: The active beta-hydroxyacid form of simvastatin is poorly bioavailable in dogs
F [33]: The active beta-hydroxyacid form of simvastatin is poorly bioavailable in humans
Hepatic extraction [34]: VALUE = Hepatic extraction of active beta-hydroxyacid form of simvastatin is high
Hepatic extraction [35]: VALUE = Hepatic extraction of active beta-hydroxyacid form of simvastatin is high
Hepatic extraction [36]: VALUE = Hepatic extraction of active beta-hydroxyacid form of simvastatin is high
Compound recovery [37]: VALUE = Extrahepatic tissue penetration of active beta-hydroxyacid form of simvastatin is relatively poor
Compound recovery [38]: VALUE = Extrahepatic tissue penetration of active beta-hydroxyacid form of simvastatin is relatively poor
Compound recovery [39]: VALUE = Extrahepatic tissue penetration of active beta-hydroxyacid form of simvastatin is relatively poor
Compound recovery [40]: OUTCOME = Observed, VALUE = Biliary excretion of active beta-hydroxyacid form of simvastatin is extensive
Compound recovery [41]: OUTCOME = Observed, VALUE = Biliary excretion of active beta-hydroxyacid form of simvastatin is extensive
Compound recovery [42]: OUTCOME = Observed, VALUE = Biliary excretion of active beta-hydroxyacid form of simvastatin is extensive
